Experiment [1] relates to TBA (DNA, G4) GGTTGGTGTGGTTGG
Put plainly: CD melting. The note with it: 50 mM K+; 10 mM Tris-HCl pH 7.4; 5 µM DNA, 20 µM compound.

The subject of another experiment is Duplex. Put plainly: CD melting, DNA stabilization. It is filed as binding. The note with it: 5 µM DNA (19AT), 20 µM BMPQ-1, 10 mM Tris-HCl, 50 mM KCl, pH 7.4. On the procedure:
Figure S2. Normalized CD thermal melting curves of DNAs in the absence or presence of BMPQ-1 under K+ conditions. (A) TTA69, (B) TTA45, (C) TTA, (D) c-KIT1, (E) TBA, (F) duplex DNA 19AT. The DNA concentration was 5 µM, and BMPQ-1 was 10 µM or 20 µM. All measurements were carried out in the buffer with 10 mM Tris-HCl (pH 7.4), 50 mM KCl. […]

Experiment [2] concerns monomeric G-quadruplexes (TBA, c-KIT1, c-KIT2, c-MYC Pu22, VEGF, TTA), duplex (19AT), single strand (dT30). Put plainly: Fluorescence response of BMPQ-1 to DNA. The note with it: 3 μM BMPQ-1, 4 μM other DNAs, λex = 395 nm. In kind it is binding. As for the experimental part: Figure 1. (A) Structure of BMPQ-1. (B) Fluorescence spectra of BMPQ-1 at λex = 395 nm in the absence or presence of dimeric G-quadruplexes (TTA45), monomeric G-quadruplexes (c-KIT1, c-KIT2, c-MYCPu22, TTA, VEGF, TBA), trinucleotide DNA (CGG12), duplex DNA (19AT) and single-stranded DNA (dT30). The concentration of BMPQ-1 was 3 μM. The concentration of TTA45 was 2 μM and DNAs with other structures were 4 μM. (C) Fluorescence spectra of 6 μM BMPQ-1 at λex = 395 nm in the absence or presence of 2 μM telomeric G-quadruplexes. Oligonucleotide samples were prepared in solution with 10 mM K2HPO4/KH2PO4, pH 7.0, 100 mM KCl. (D) Effect of BMPQ-1 on the CD spectra of 10 μM TTA45 in 10 mM Tris-HCl buffer (pH 7.4) containing 100 mM KCl.
G-quadruplex forming oligonucleotides were annealed in the buffer (10 mM K2HPO4/KH2PO4 pH 7.0, 100 mM KCl) by heating to 95°C for 5 min, followed by gradual cooling to room temperature. Fluorescence spectra were detected by RF-5301PC spectrofluorophotometer (Shimadzu, Japan) at room temperature. The spectra were recorded with 5 nm excitation and emission slit widths. […] For the fluorescence measurements between BMPQ-1 and different DNA sequences, the final concentrations of multimeric G-quadruplex forming oligonucleotides were 2 μM and other DNA oligonucleotides were 4 μM.

The test system of another experiment is A549 cells. Put plainly: Annexin V-FITC/PI apoptosis detection. In kind it is cell-based, human. The note with it: A549, 3 μM, 24 h. As for the experimental part:
The A549 cells treated with BMPQ-1 or DMSO were washed twice with PBS and detected using the annexin V-FITC/PI apoptosis detection kit (DOJINDO, Japan). The cells were pelleted and resuspended in the binding buffer. Annexin V-FITC and PI were added, and the cells were disturbed by gently vortexing the samples prior to incubation for 5 min in the dark. Emitted florescence was quantitated by flow cytometry (BD FacsAria, USA). For each analysis, 2.0 × 10^4 events were collected.
Figure S10. BMPQ-1 induced cell apoptosis of A549. (A) Apoptosis evaluation of A549 cells after 24 h treatment with various concentrations of BMPQ-1. The cells were collected and stained with Annexin V–FITC and PI. Region LL represents the viable cells; LR represents the early apoptotic cells; UR represents the late apoptotic cells; UL represents damaged cells and cell debris.
(B) Percentage of apoptosis in A549 cells. […]

Experiment [3] deals with Tel26 (DNA, G4) AAAGGGTTAGGGTTAGGGTTAGGGAA
Put plainly: CD titration. The note with it: 100 mM K+; 10 mM Tris-HCl pH 7.4; 265 nm peak decreased.

Experiment [4] concerns TTA43 (DNA, G4) GGGTTAGGGTTAGGGTTAGGGTGGGTTAGGGTTAGGGTTAGGG
Put plainly: fluorescence titration. The note with it: 100 mM K+ (KCl) plus potassium phosphate; 10 mM K2HPO4/KH2PO4 pH 7.0; 3 µM compound, DNA 0-10 µM; weaker than TTA45.

Experiment [5] concerns TTA51/T3 (DNA, G4) GGGTTAGGGTTAGGGTTAGGGTTATTATTAGGGTTAGGGTTAGGGTTAGGG
Put plainly: fluorescence titration. The note with it: 100 mM K+ (KCl) plus potassium phosphate; 10 mM K2HPO4/KH2PO4 pH 7.0; 3 µM compound, DNA 0-10 µM; weaker than TTA45.

The subject of experiment [6] is FAM-TTA45-Cy5 (DNA, G4) GGGTTAGGGTTAGGGTTAGGGTTAGGGTTAGGGTTAGGGTTAGGG
Put plainly: smFRET population titration. The note with it: 100 mM K+; 10 mM Tris-HCl pH 7.4, 0.01% Tween 20, 1 mM ascorbic acid, 1 mM methylviologen, room temperature; apparent.

Experiment [7] deals with TTA45 (DNA, G4) GGGTTAGGGTTAGGGTTAGGGTTAGGGTTAGGGTTAGGGTTAGGG
Put plainly: ligand fluorescence enhancement. The note with it: 100 mM K+ (KCl) plus potassium phosphate; 10 mM K2HPO4/KH2PO4 pH 7.0; 3 µM compound, 2 µM DNA; 10-fold increase at 521 nm.

The subject of experiment [8] is c-KIT2 (DNA, G4) GGGCGGGCGCGAGGGAGGGG
Put plainly: ligand fluorescence enhancement. The note with it: 100 mM K+ (KCl) plus potassium phosphate; 10 mM K2HPO4/KH2PO4 pH 7.0; 3 µM compound, 4 µM DNA; enhancement below 3-fold.

Experiment [9] has as its system c-MYC Pu22 (DNA, G4) TGAGGGTGGGTAGGGTGGGTAA
Put plainly: ligand fluorescence enhancement. The note with it: 100 mM K+ (KCl) plus potassium phosphate; 10 mM K2HPO4/KH2PO4 pH 7.0; 3 µM compound, 4 µM DNA; enhancement below 3-fold.

In the case of `Cc1ccc(Cn2cc3c(-c4ccc5c(c4)OCO5)nnc-3c3cc4c(cc32)OCO4)cc1` [BMPQ-1], in [1], the ΔTm (as a rule, the change in melting temperature against a reference sample) was 4.7 °C. Further, in the experiment with Duplex, the “ΔTm (°C) Duplex” value stood at 1.8 °C. Besides, the fluorescence enhancement entry in [2] was “less than 3 fold”. Moreover, the “population of apoptotic cells” value in the experiment with A549 cells was “approximately 60%”. Moreover, the binding result in experiment [3] was “yes”; in experiment [4] it was “yes”; in [5] it was “yes”; in experiment [7], “yes”; in [8] it was “weak”; in experiment [9], “weak”. Further, the KD in experiment [6] is on record as 527 ± 68.9 nM.

The values are drawn from PMC7672424 (Nucleic Acids Research, 2020).
